Read-outs that look alike come from different tables or passages of the source.
Experiments:
[1] = system: Tissue Factor (TF) production by human prostate cancer cell line PC-3; assay: TF ELISA, PC-3; assay type: cell-based; conditions: 20 μM; for TF (% of DMSO): DMSO = 100%; for TF: mean of triplicate and S.D., DMSO 203 ± 6
Description: (§1) Cells were treated with 1% Triton X-100 in PBS and left overnight at 4° C. overnight to solubilize TF. […] IMUBIND Tissue Factor ELISA Kit (American Diagnostica Inc, Greenwich, Conn.) was used to determine TF concentration in each sample. The ELISA was carried out according to manufacturer's procedure.

[2] = system: Vascular Endothelial Growth Factor (VEGF) production by human prostate cancer cell line PC-3; assay: VEGF ELISA, PC-3; assay type: cell-based; conditions: for VEGF (% of DMSO): DMSO = 100%
[3] = system: Vascular Endothelial Growth Factor (VEGF) production by human prostate cancer cell line DU-145; assay: VEGF ELISA, DU-145; assay type: cell-based; conditions: for VEGF (% of DMSO): DMSO = 100%
[4] = system: Vascular Endothelial Growth Factor (VEGF) production by human melanoma cell line RPMI-7951; assay: VEGF ELISA, RPMI-7951; conditions: for activity at 5 µM / activity at 20 µM: Homo sapiens, RPMI-7951, 72 h, read-out: VEGF; for VEGF ELISA / VEGF: RPMI-7951; for VEGF ELISA: DMSO control 3713
[5] = system: RPMI-7951 human melanoma; assay: Neutral Red Assay, cell viability, RPMI-7951; conditions: for viability at 5 µM / viability at 20 µM: Homo sapiens; for Neutral Red Uptake, % / Cell Viability: RPMI-7951; for Neutral Red Uptake, %: 72 hours; for Cell Viability: DMSO = 100
[6] = system: Tissue Factor (TF) production by human prostate cancer cell line DU-145; assay: TF ELISA, DU-145; assay type: cell-based; conditions: 20 μM; for TF (% of DMSO): DMSO = 100%; for TF: mean of triplicate and S.D., DMSO 7699 ± 406
Description: as §1

[7] = system: Tissue Factor (TF) production by human breast cancer cell line MDA-MB-231; assay: TF ELISA, MDA-MB-231; assay type: cell-based; conditions: 0.5 μM
Description: (§2) IMUBIND Tissue Factor ELISA Kit (American Diagnostica Inc, Greenwich, Conn.) was used to determine TF concentration in each sample. The ELISA was carried out according to manufacturer's procedure.

[8] = system: Tissue Factor (TF) production by human melanoma cell line RPMI-7951; assay: TF ELISA, RPMI-7951; assay type: cell-based
Description: as §2

[9] = system: MDA-MB-435; assay: Emory Laboratory Cell Screen, Neutral Red, MDA-MB-435; assay type: cell-based, human; conditions: MDA-MB-435, Breast Cancer, 72 hours, read-out: Median Growth Inhibitory Concentration (GI50)
Description: (§3) Human tumor and endothelial cell lines were treated for 72 hours with compounds at a minimum of four concentrations between 0.1 μM-40 μM. Neutral Red assay was used to calculate cell viability.

[10] = system: HUVECS; assay: Emory Laboratory Cell Screen, Neutral Red, HUVECS; assay type: cell-based, human; conditions: 72 hours, read-out: Median Growth Inhibitory Concentration (GI50)
Description: as §3

[11] = system: MDA-MB-231; assay: Emory Laboratory Cell Screen, Neutral Red, MDA-MB-231; assay type: cell-based, human; conditions: MDA-MB-231, Breast Cancer, 72 hours, read-out: Median Growth Inhibitory Concentration (GI50)
Description: as §3

[12] = system: RPMI 7951; assay: Emory Laboratory Cell Screen, Neutral Red, RPMI 7951; assay type: cell-based, human; conditions: RPMI 7951, Melanoma, 72 hours, read-out: Median Growth Inhibitory Concentration (GI50)
Description: as §3

[13] = system: Human tumor and endothelial cell lines; assay: Emory Laboratory Cell Screen, mean over cell lines; assay type: cell-based; conditions: Mean over the Emory cell lines, 72 hours, read-out: Median Growth Inhibitory Concentration (GI50), Mean
Description: as §3

[14] = 20 μM, mean of triplicate and S.D., DMSO 2103 ± 100
[15] = Table 4, 20 μM, mean of triplicate and S.D.
[16] = 20 μM, mean of triplicate and S.D., DMSO 18760 ± 2633
[17] = 5 μM, DMSO control 4197 (EF-25: 1045)
[18] = RPMI-7951, 72 h, read-out: Neutral Red Uptake, %
[19] = RPMI-7951, read-out: Cell Viability
[20] = Table 5, 5 μM, DMSO control 7054

| Compound | GI50 [13] [nM] | TF (% of DMSO) [1] | TF [1] [pg/mL] | VEGF (% of DMSO) ([2]; 20 μM) | VEGF [2, 14] [pg/mL] | VEGF ([2]; Table 4, 20 μM, DMSO = 100) [%] | VEGF [2, 15] [pg/mL] | VEGF (% of DMSO) ([3]; 20 μM) | VEGF [3, 16] [pg/mL] | VEGF ([3]; Table 4, 20 μM, DMSO = 100) [%] | VEGF [3, 15] [pg/mL] | activity at 5 µM [4] [%] | VEGF ELISA ([4]; 5 μM) [pg/ml/well] | VEGF [4, 17] [pg/mL] | VEGF ELISA ([4]; 20 μM) [pg/ml/well] | VEGF ([4]; 20 μM, DMSO control 4197) [pg/mL] | TF (% of DMSO) [6] | TF [6] [pg/mL] | GI50 [10] [µM] | GI50 [12] [nM] | also measured |
| --- | --- | --- | --- | --- | --- | --- | --- | --- | --- | --- | --- | --- | --- | --- | --- | --- | --- | --- | --- | --- | --- |
| O=C(C=Cc1ccc(O)cc1)C=Cc1ccc(O)cc1 [EF1, 1,5-Bis(4-hydroxyphenyl)penta-1,4-dien-3-one] | – | (53%) | 107 ± 9 | (15%) | 325 ± 75 | 15 | 325 ± 75 | (105%) | 19616 ± 4624 | 105 | 19616 ± 4624 | 61 | 1923 | 2573 | 234 | 0 | (167%) | 12879 ± 149 | – | – | activity at 20 µM [4]: 0%; viability at 5 µM [5, 18]: 92%; viability at 20 µM [5, 18]: 8%; viability at 5 µM [5, 19]: 98%; viability at 20 µM [5, 19]: 43% |
| O=C(C=Cc1ccccc1O)C=Cc1ccccc1O [EF2, 1,5-Bis(2-hydroxyphenyl)penta-1,4-dien-3-one] | – | (36%) | 73 ± 10 | (1%) | 26 ± 44 | 1 | 26 ± 44 | (40%) | 7516 ± 1915 | 40 | 7516 ± 1915 | 36 | 1295 | 1522 | 84 | 0 | (72%) | 5540 ± 364 | – | – | TF ([7]; DMSO = 100): 82%; TF ([7]; DMSO control 45753): 37697 pg/mL; TF ([8]; 5 μM, DMSO = 100): 82%; TF ELISA ([8]; 5 μM, DMSO control 7054): 1009 pg/ml/well; TF ([8]; 20 μM, DMSO = 100): 14%; TF [8, 20]: 5780 pg/mL; TF ([8]; Table 5, 20 μM, DMSO control 7054): 1009 pg/mL; GI50 ([9]; Homo sapiens): 3300 nM; GI50 ([10]; Homo sapiens, HUVEC): 1.7 µM; activity at 20 µM [4]: 0%; GI50 ([11]; Homo sapiens): 1500 nM; GI50 ([12]; Homo sapiens): 800 nM; GI50 ([13]; Homo sapiens, Endothelial cell): 1800 nM; viability at 5 µM [5, 18]: 46%; viability at 20 µM [5, 18]: 7%; viability at 5 µM [5, 19]: 68%; viability at 20 µM [5, 19]: 42% |
| O=C(C=Cc1cccc(O)c1)C=Cc1cccc(O)c1 [EF3, 1,5-Bis(3-hydroxyphenyl)penta-1,4-dien-3-one] | – | (69%) | 140 ± 8 | (44%) | 917 ± 261 | 44 | 917 ± 261 | (138%) | 25901 ± 620 | 149 | 25901 ± 620 | 67 | 2092 | 2827 | 230 | 0 | (87%) | 6687 ± 188 | – | – | activity at 20 µM [4]: 0%; viability at 5 µM [5, 18]: 77%; viability at 20 µM [5, 18]: 8%; viability at 5 µM [5, 19]: 88%; viability at 20 µM [5, 19]: 43% |
| CN1CC(=Cc2ccccc2O)C(=O)C(=Cc2ccccc2O)C1 [EF34, 3,5-Bis(2-hydroxybenzylidene)1-methyl4-piperidone] | – | – | – | – | – | – | – | – | – | – | – | – | – | – | – | – | – | – | – | – | GI50 ([11]; Homo sapiens): 800 nM; GI50 ([13]; Homo sapiens, Endothelial cell): 800 nM |

Further lines, with some results ahead:

| GI50 [13] [nM] | Compound | TF (% of DMSO) [1] | TF [1] [pg/mL] | VEGF (% of DMSO) ([2]; 20 μM) | VEGF [2, 14] [pg/mL] | VEGF ([2]; Table 4, 20 μM, DMSO = 100) [%] | VEGF [2, 15] [pg/mL] | VEGF (% of DMSO) ([3]; 20 μM) | VEGF [3, 16] [pg/mL] | VEGF ([3]; Table 4, 20 μM, DMSO = 100) [%] | VEGF [3, 15] [pg/mL] | activity at 5 µM [4] [%] | VEGF ELISA ([4]; 5 μM) [pg/ml/well] | VEGF [4, 17] [pg/mL] | VEGF ELISA ([4]; 20 μM) [pg/ml/well] | VEGF ([4]; 20 μM, DMSO control 4197) [pg/mL] | TF (% of DMSO) [6] | TF [6] [pg/mL] | GI50 [10] [µM] | GI50 [12] [nM] | also measured |
| --- | --- | --- | --- | --- | --- | --- | --- | --- | --- | --- | --- | --- | --- | --- | --- | --- | --- | --- | --- | --- | --- |
| 2900 | COc1ccc(/C=C/C(=O)/C=C/c2ccc(OC)c(OC)c2)cc1OC [MD6] | – | – | (87%) | 1820 ± 283 | 87 | 1820 ± 283 | (98%) | 18428 ± 3377 | 98 | 18428 ± 3377 | – | 2826 | 3200 | 273 | 30 | – | – | 3.8 | 1900 | TF ([8]; 1 μM, DMSO = 100): 91%; TF ([8]; 1 μM, DMSO control 7054): 6400 pg/mL; TF ([8]; 5 μM, DMSO = 100): 25%; TF ELISA ([8]; 5 μM, DMSO control 7054): 1753 pg/ml/well; TF [8, 20]: 1753 pg/mL; VEGF ([4]; 5 μM, DMSO = 100): 76%; VEGF ([4]; 20 μM, DMSO = 100): 1%; Neutral Red Uptake, % ([5]; 5 μM): 97 % of control; Cell Viability ([5]; 5 μM): 101%; Neutral Red Uptake, % ([5]; 20 μM): 6 % of control; Cell Viability ([5]; 20 μM): 42% |
| 8100 | COc1cc(C=C2CCCC(=Cc3ccc(O)c(OC)c3)C2=O)ccc1O [MD10] | (0%) | 0 ± 0 | (29%) | 611 ± 248 | 29 | 611 ± 248 | (42%) | 7830 ± 2262 | 42 | 7830 ± 2262 | – | 1585 | 1866 | 315 | 0 | (76%) | 5886 ± 332 | 14 | 2200 | TF ([8]; 1 μM, DMSO = 100): 113%; TF ([8]; 1 μM, DMSO control 7054): 7966 pg/mL; TF ([8]; 5 μM, DMSO = 100): 25%; TF ELISA ([8]; 5 μM, DMSO control 7054): 1793 pg/ml/well; TF [8, 20]: 1793 pg/mL; VEGF ([4]; 5 μM, DMSO = 100): 44%; VEGF ([4]; 20 μM, DMSO = 100): 0%; Neutral Red Uptake, % ([5]; 5 μM): 82 % of control; Cell Viability ([5]; 5 μM): 91%; Neutral Red Uptake, % ([5]; 20 μM): 6 % of control; Cell Viability ([5]; 20 μM): 42% |
| 2100 | COc1cc(C=C2CSCC(=Cc3ccc(O)c(OC)c3)C2=O)ccc1O [MD283] | – | – | – | – | – | – | – | – | – | – | – | – | – | – | – | – | – | 3.1 | 1400 | GI50 [9]: 1900 nM; GI50 [11]: 1800 nM |
| 1700 | CC(=O)Oc1ccccc1C=CC(=O)C=Cc1ccccc1OC(C)=O [MD286] | – | – | – | – | – | – | – | – | – | – | – | – | – | – | – | – | – | 2.3 | 1000 | – |

— patent US7371766B2, “Curcumin analogs with anti-tumor and anti-angiogenic properties” (Emory University, priority 1999, dated 2008)
